Structures are written as SMILES.

Data set [1] in a line: Cytotoxicity against human MRC5 cells. The format is toxicity, cell-based.
A short description of data set [2]: Inhibition of Plasmodium falciparum Lysyl-tRNA ligase expressed in Escherichia coli Tuner (DE3) cells assessed as suppression of L-lysine-tRNA(Lys) formation in presence of AMP-Alexa633 tracer after 4 hrs by fluorescence polarization assay. In general terms: Fluorescence polarisation rises when a labelled molecule tumbles more slowly, as on binding a larger partner.

For data set [3], the system named is Saccharomyces cerevisiae. Put plainly: Ratio of IC50 for Saccharomyces cerevisiae wild type KRS1 to IC50 for Saccharomyces cerevisiae KRS1 Gln324Val/Thr340Ser mutant.
Data set [4] concerns Saccharomyces cerevisiae. Nature of the data set: Ratio of IC50 for Saccharomyces cerevisiae wild type KRS1 to IC50 for Saccharomyces cerevisiae KRS1 Thr340Ser mutant.
Data set [5] deals with Saccharomyces cerevisiae. Nature of the data set: Ratio of IC50 for Saccharomyces cerevisiae wild type KRS1 to IC50 for Saccharomyces cerevisiae KRS1 Gln324Val mutant.
Data set [6] is described as follows: Selectivity ratio of IC50 for human Lysyl-tRNA ligase to IC50 for Plasmodium falciparum Lysyl-tRNA ligase.
For another data set, the system named is Plasmodium berghei. Put plainly: Antimalarial activity against liver stage of Plasmodium berghei ANKA. Format: functional.
Data set [7] is described as follows: Inhibition of bovine liver TrpRS assessed as suppression of L-[5-3H]tryptophanyl-tRNA formation after 10 mins by liquid scintillation counting method. Details: species or system Bos taurus.
Data set [8] is described as follows: Inhibition of Escherichia coli TrpRS assessed as suppression of L-[5-3H]tryptophanyl-tRNA formation after 10 mins by liquid scintillation counting method.
For data set [9], the target named is Isoleucine--tRNA ligase (Thermus thermophilus (strain HB8 / ATCC 27634 / DSM 579), UniProt P56690, H581S/L583I). Nature of the data set: Inhibition of recombinant Thermus thermophilus HB8 IleRS H581S/L583I double mutant assessed as suppression of L-[14C]isoleucyl-tRNA(Ile) formation.
The target of data set [10] is Isoleucine--tRNA ligase (Thermus thermophilus (strain HB8 / ATCC 27634 / DSM 579), UniProt P56690, H581L/L583H). Nature of the data set: Inhibition of recombinant Thermus thermophilus HB8 IleRS H581L/L583H double mutant assessed as suppression of L-[14C]isoleucyl-tRNA(Ile) formation.
The target in data set [11] is Isoleucine--tRNA ligase (Thermus thermophilus (strain HB8 / ATCC 27634 / DSM 579), UniProt P56690, L583F). Nature of the data set: Inhibition of recombinant Thermus thermophilus HB8 IleRS L583F mutant assessed as suppression of L-[14C]isoleucyl-tRNA(Ile) formation.
In data set [12] the target is T1, Isoleucine--tRNA ligase (Thermus thermophilus (strain HB8 / ATCC 27634 / DSM 579), UniProt P56690).
T1 sequence (P56690 whole entry): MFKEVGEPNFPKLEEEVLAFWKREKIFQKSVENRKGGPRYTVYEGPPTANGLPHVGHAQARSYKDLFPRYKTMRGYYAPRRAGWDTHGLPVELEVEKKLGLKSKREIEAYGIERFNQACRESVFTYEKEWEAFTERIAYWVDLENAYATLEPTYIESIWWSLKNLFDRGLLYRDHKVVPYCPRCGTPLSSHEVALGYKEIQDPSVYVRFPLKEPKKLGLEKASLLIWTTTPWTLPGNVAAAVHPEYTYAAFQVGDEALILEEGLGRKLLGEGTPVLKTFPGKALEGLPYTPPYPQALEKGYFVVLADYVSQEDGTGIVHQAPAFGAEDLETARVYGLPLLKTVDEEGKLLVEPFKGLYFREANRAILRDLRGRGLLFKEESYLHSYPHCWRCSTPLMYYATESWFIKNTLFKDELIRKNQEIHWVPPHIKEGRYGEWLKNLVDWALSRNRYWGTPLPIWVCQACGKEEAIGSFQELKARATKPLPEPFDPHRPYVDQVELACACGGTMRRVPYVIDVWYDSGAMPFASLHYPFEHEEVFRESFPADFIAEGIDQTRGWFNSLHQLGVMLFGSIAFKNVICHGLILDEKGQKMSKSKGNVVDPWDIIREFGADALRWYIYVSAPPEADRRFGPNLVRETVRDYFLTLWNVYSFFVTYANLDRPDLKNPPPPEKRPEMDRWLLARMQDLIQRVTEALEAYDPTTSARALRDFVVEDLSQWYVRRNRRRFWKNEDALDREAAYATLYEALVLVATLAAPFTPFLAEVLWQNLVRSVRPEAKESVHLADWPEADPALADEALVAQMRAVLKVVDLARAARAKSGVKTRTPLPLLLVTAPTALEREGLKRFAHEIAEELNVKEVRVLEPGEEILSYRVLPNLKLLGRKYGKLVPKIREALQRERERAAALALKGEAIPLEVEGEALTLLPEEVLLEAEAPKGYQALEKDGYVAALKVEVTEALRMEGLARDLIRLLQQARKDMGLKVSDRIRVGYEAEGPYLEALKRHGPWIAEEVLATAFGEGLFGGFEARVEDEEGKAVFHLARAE
Put plainly: Inhibition of recombinant Thermus thermophilus HB8 wild type IleRS assessed as suppression of L-[14C]isoleucyl-tRNA(Ile) formation.

Data set [13] has as its target Isoleucine--tRNA ligase (Thermus thermophilus (strain HB8 / ATCC 27634 / DSM 579), UniProt P56690, H581N/L583F). Put plainly: Inhibition of recombinant Thermus thermophilus HB8 IleRS H581N/L583F double mutant assessed as suppression of L-[14C]isoleucyl-tRNA(Ile) formation.

Chain of Isoleucine--tRNA ligase (Thermus thermophilus (strain HB8 / ATCC 27634 / DSM 579), UniProt P56690, H581S/L583I) (P56690 whole entry H581S/L583I): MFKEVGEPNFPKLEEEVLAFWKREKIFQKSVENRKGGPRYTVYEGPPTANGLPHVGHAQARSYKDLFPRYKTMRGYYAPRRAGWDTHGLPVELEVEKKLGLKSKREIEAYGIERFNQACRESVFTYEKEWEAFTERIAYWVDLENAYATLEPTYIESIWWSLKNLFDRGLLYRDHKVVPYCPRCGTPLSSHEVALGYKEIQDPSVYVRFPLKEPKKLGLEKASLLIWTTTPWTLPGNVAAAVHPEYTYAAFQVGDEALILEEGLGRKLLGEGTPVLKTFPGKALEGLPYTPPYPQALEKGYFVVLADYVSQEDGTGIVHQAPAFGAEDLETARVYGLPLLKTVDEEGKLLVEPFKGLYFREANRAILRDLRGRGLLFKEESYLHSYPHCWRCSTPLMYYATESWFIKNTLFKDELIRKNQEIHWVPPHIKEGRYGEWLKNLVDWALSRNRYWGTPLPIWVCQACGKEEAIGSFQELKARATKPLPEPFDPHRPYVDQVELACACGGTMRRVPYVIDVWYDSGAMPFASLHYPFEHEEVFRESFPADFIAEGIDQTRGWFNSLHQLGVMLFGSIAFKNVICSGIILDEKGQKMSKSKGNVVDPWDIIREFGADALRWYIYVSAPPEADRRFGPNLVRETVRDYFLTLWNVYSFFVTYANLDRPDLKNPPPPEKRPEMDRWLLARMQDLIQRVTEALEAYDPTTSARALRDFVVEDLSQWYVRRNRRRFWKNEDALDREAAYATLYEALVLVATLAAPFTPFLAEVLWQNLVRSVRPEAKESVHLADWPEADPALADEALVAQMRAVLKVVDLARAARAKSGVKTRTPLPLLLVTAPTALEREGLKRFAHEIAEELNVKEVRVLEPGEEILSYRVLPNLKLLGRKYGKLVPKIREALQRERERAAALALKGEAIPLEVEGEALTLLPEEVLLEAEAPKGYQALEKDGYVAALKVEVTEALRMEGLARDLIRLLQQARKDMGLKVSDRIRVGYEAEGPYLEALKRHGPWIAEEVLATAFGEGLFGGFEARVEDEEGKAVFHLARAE
Chain of Isoleucine--tRNA ligase (Thermus thermophilus (strain HB8 / ATCC 27634 / DSM 579), UniProt P56690, H581N/L583F) (P56690 whole entry H581N/L583F): as the sequence (P56690 whole entry H581S/L583I) above, with S581N, I583F counted along it
Chain of Isoleucine--tRNA ligase (Thermus thermophilus (strain HB8 / ATCC 27634 / DSM 579), UniProt P56690, L583F) (P56690 whole entry L583F): as the sequence (P56690 whole entry H581S/L583I) above, with S581H, I583F counted along it
Chain of Isoleucine--tRNA ligase (Thermus thermophilus (strain HB8 / ATCC 27634 / DSM 579), UniProt P56690, H581L/L583H) (P56690 whole entry H581L/L583H): as the sequence (P56690 whole entry H581S/L583I) above, with S581L, I583H counted along it

Take `C[C@@H]1C[C@H](C)C[C@H](C)[C@@H](O)CC(=O)O[C@H]([C@@H]2CCC[C@H]2C(=O)OCc2cn(CSc3ccccc3)nn2)C/C=C/C=C(/C#N)[C@H](O)[C@@H](C)C1`: the Activity in data set [1] amounted to 16800 ng/mL.
What is called IC50 is the concentration needed to halve the response being measured. On to `C[C@H]1CCC[C@H](CC2Cc3cc(O)cc(O)c3C(=O)O2)O1` (stereo partly specified), for which, in data set [2], the IC50 came to 0.04 µM. In addition, the Ratio IC50 in the data set with Saccharomyces cerevisiae [3] is 38.7; in the data set with Saccharomyces cerevisiae [4] it was 10.4; in the data set on Saccharomyces cerevisiae [5] it was 5.7; in [6] it was above 100.
Broadly, the EC50 is the concentration that produces a half-maximal response. Lower therefore signals higher potency in that assay. `O=c1c2cc(Cl)c(Br)cc2ncn1C[C@@H](O)C[C@H]1NCCC[C@@H]1O`: in the data set on Plasmodium berghei, a half-maximal response (EC50) required 0.014 µM.
Compound `C[C@@H]1C[C@H](C)C[C@H](C)[C@@H](O)CC(=O)O[C@H]([C@@H]2CCC[C@H]2C(=O)O)C/C=C/C=C(/C#N)[C@H](O)[C@@H](C)C1` [BORRELIDIN] registered an Activity in data set [1] of 201 ng/mL.
`O=C(CC1NCCCC1O)Cn1cnc2cc(Br)c(Cl)cc2c1=O` (stereo unspecified) [HALOFUGINONE] registered an EC50 in the data set on Plasmodium berghei of 0.017 µM.
Regarding `CNC1=NC(=O)[C@H]([C@H](C)c2c[nH]c3ccccc23)O1` [INDOMYCIN], the results for the IC50 in data set [7] and in [8] were 4040 µM and 0.00925 µM, respectively.
What is called Ki is a measure of affinity in units of concentration, obtained from inhibition or displacement. As to `C/C(=C\C(=O)OCCCCCCCCC(=O)O)C[C@@H]1OC[C@H](C[C@@H]2O[C@H]2[C@@H](C)[C@H](C)O)[C@@H](O)[C@H]1O` [MUPIROCIN], the Ki on Isoleucine--tRNA ligase [9] came out at 15 µM; on Isoleucine--tRNA ligase [10], 2.31 µM; on Isoleucine--tRNA ligase [11], 0.06 µM; on Isoleucine--tRNA ligase [12], 0.25 µM; on Isoleucine--tRNA ligase [13], 2.73 µM.

For the origin of these results see ChEMBL document CHEMBL3861949 (Medchemcomm, 2016).
